# In ChEMBL document CHEMBL3044938, “Chromatographic separation and in vitro activity of sorgoleone congeners from the roots of sorghum bicolor” (J Agric Food Chem, 2003):
# Target: Photosystem II protein D1 (Spinacia oleracea, UniProt P69560)
# Test: Inhibition of photosystem II mediated oxygen evolution in Spinacia oleracea (spinach) thylakoid measured for 25 sec
# Conditions: read-out: I50
row,SMILES,IC50 [nM]
1,C=CC/C=C\C/C=C\CCCCCCCC1=C(O)C(=O)C=C(OC)C1=O [SORGOLEONE],65
2,CCCCCC/C=C\CCCCCCCC1=C(O)C(=O)C=C(OC)C1=O [Sorgoleone-362],109
3,CCC/C=C\C/C=C\CCCCCCCC1=C(O)C(=O)C=C(OC)C1=O [Sorgoleone-360],104
4,CCCCCCCCCCCCCC1=C(O)C(=O)C=C(OC)C1=O [Sorgoleone-364],103
